Legend:
[1] = test system: nitroreductase NfsA-expressing HCT116 'activator' cells; assay: MCL (multicellular layer) bystander experiment, NfsA-dependent activation; type: cell-based, human
Experimental: Displacement of the Target cell survival curve to the left (T to Tc) is indicative of the presence of a cytotoxic metabolite(s) able to diffusible out of the sensitive activator (A) cell population. The prodrug concentrations for 10% survival (C10) of target cells (wild-type cells) grown without activators (T), targets in co-culture (TC) and activators (nfsA-expressing cells) in co-culture (AC) were determined by interpolation. BEE-Bystander effect efficiency calculates the drugs bystander effect: ((Log C10T−Log C10TC)/(Log C10T−Log C10AC)).
The prodrug concentrations for 10% survival (C10) of target cells (wild-type cells) grown without activators (T), and targets in co-culture (TC) and activators (NTR-expressing cells) in co-culture (AC) can be determined. The bystander effect of a test prodrug is measured by the bystander effect efficiency which can be calculated using the algorithm ((Log C10T−Log C10TC)/(Log C10T−Log C10AC)).
Millicell-CM membrane inserts (Millipore) were coated in calf-skin collagen type III (Sigma-Aldrich) to facilitate cell attachment. […] After exposure, inserts were disaggregated (0.07% trypsin, 10 min, 37° C., followed by 100 μg/ml DNAase I (Sigma-Aldrich). Cells were counted, resuspended and plated in P60 dishes to determine clonogenic survival. To discriminate clonogenic activator (NTR+) from target (NTR−) colonies cells were plated in non-selective medium (total cells) and medium containing 1 μM puromycin (activator cells). Colonies were grown in a 37° C. 5% CO2 incubator for 10 days before staining with methylene blue (2 g/liter in 50% v/v aqueous ethanol). Colonies containing >50 cells were counted as clonogenic survivors. Surviving fractions for each population was calculated as the plating efficiency for drug-treated MCLs/untreated controls. The drug concentrations for 10% survival (C10) of target cells grown without activators (T), targets in co-culture (Tc) and activators in co-culture (Ac) was determined by interpolation.

[2] = test system: HCT-116 cells expressing human cytochrome P450 reductase (CYPOR); assay: Flow cytometry of EF5 retention in vitro; type: cell-based; conditions: increasing EF5 concentrations, oxic, monolayer
Experimental: (§1) In vitro: 1×10^6 cells were drug treated (EF5 or PIMO) for 1-2 hrs, harvested by trypsinisation, fixed with 4% buffered PFA (pH 7.4, 1 hr). In vivo: Tumour xenograft cells were isolated by enzymatic dissociation (2.5 mg/ml pronase, 1 mg/ml collagenase and 0.2 mg/ml DNAse) and immediately fixed with 4% buffered PFA (pH 7.4, 1 hr). and transferred to 70% ethanol (−20° C., overnight). Cells were resuspended in 1% BSA/PBS and permeabilised with 0.2% Triton X-100 (30 min, RT), blocked in 10% BSA/PBS (30 min, RT) and resuspended in primary antibody for 2 hr (37° C.). The primary antibody was either anti-EF5 mouse monoclonal (ELK 3.51) conjugated with CY5 or Alexa-488 diluted to 100 μg/ml in blocking buffer (according to instruction in Koch C., 2008, Rad Res, 169 (6): 677-688) or Hypoxyprobe-1 (Chemicon Int) mouse monoclonal anti-pimonidazole antibody (clone 4.3.11.3) conjugated with FITC and diluted 1:100 in blocking buffer. Cells were washed in blocking buffer and resuspended in blocking buffer containing 100 μg/ml RNAase and analysed using a Becton Dickinson FACscan flow cytometer (MA, USA) with Cell Quest software using forward scatter and side scatter to gate out cell debris and tumour cells. Integrated fluorescence measurements were recorded for 30,000 single non-debris events.

[3] = test system: nfsA-expressing cells in mixed HCT116 xenografts; assay: Immunohistochemical detection of EF5 binding in tumour xenograft sections; type: in vivo, mice; conditions: constant exposure time 0.5 s
Experimental: FIG. 16 (A) illustrates immunohistochemical detection of EF5 binding in human tumour xenografts harbouring 0%, 3%, 12% or 20% HCT-116^nfsA expressing cells. FIG. 16 (A) further illustrates Fluorescent microscope pictures of tumour sections, and FIG. 16 (B) illustrates flow cytometry histograms of EF5/CY5 fluorescence to confirm % NfsA expressing cells of individual tumour.
In vivo: mice were treated with 60 mg/kg EF5 (ip) and left for 24 hrs. Tumour tissue was excised, fixed in 10% formalin dissolved in PBS (48 h), transferred to 70% ethanol and embedded in paraffin. Sections (5 μm) were cut, mounted onto poly-L-lysine coated glass slides and heat fixed for 1 h at 60° C. Sections were dewaxed, rehydrated, washed in Milli-Q water and then rinsed in 0.01 M Tris buffered saline (TBS, pH 7.4). Antigen retrieval was achieved by boiling samples in 10 mM sodium citrate buffer pH 6 for 25 min. Sections were washed with TBS containing 0.1% Tween-20 (TBS-T) and blocked with 1% mouse serum in TBS. After rinsing, the samples were incubated for 2 hr at room temperature with 100 μg/ml anti-EF5 (Alexa-488) primary antibody diluted in PBS containing 0.2% Tween-20. After rinsing in with TBS-T the coverslips were mounted with Prolong Gold antifade (Invitrogen) and sealed with nail varnish. […] Images were analysed and overlaid using Adobe Photoshop software (Adobe Photoshop 4.0).

[4] = test system: HCT-116 cells stably expressing E. coli NfsA; assay: Flow cytometry / fluorescent imaging of EF5 retention in vitro; type: cell-based, human
Experimental: (§2) FIG. 11 illustrates the results of flow cytometry analysis and fluorescent imaging of stably-expressing E. coli NTR cells after in vitro EF5 exposure. 1×10^6 cells were seeded into a 6-well plate and incubated with 20 μM EF5 for 2 hrs at 37° C. Cells were fixed and stained, then analysed by flow cytometry and imaged using a Nikon2000 fluorescent microscope.
(§3) FIG. 13 illustrates the results of flow cytometry analysis of HCT-116 cells stably expressing E. coli NfsA and NfsB after in vitro dose-response to EF5 exposure. 1×10^6 cells were incubated with varying concentrations of EF5 in oxic conditions. Samples were fixed and stained with EF5 antibody Alexa 488 ELK3.51 at 100 μg/ml. Samples were then analysed on a Becton Dickinson FACscan flow cytometer. Values are mean±SEM of two independent experiments. Representative histograms at multiple EF5 dose levels.
as §1
(§4) In vitro: 3-4 drops of cell suspension prepared for flow cytometry was added to a cytospin chamber containing a poly-I-lysine coated slide and spun for 5 minutes at low acceleration (500 rpm) in a cytospinner. Cells were left to dry and mounted with coverslips using Prolong Gold antifade (Invitrogen) and sealed with nail varnish.

[5] = test system: HCT-116 cells stably expressing E. coli NfsB; assay: as above; type: cell-based, human
Experimental: as §2, §3, §1, §4

[6] = increasing EF5 concentrations, oxic, monolayer

Question: Which results are given for `O=C(Cn1ccnc1[N+](=O)[O-])NCC(F)(F)C(F)(F)F` [EF5, 2-(2-nitro-1H-imidazol-1-yl)-N-(2,2,3,3,3-pentafluoropropyl)acetamide]?
Answer: bystander property (in words) ([1]; MCL of NTR-expressing and parental HCT116 cells): zero bystander property; concentration-time giving 90% loss of viability for nfsA expressing HCT116 cells ([1]; cold (radiolabel-free) EF5): 0.7 mM-hr; estimated bystander effect efficiency (BEE) ([1]; hyperoxic (95% O2) MCLs, at concentrations achievable in α-MEM+10% FBS, activator fraction differs per experiment): 0%; activity towards EF5, dose-response (in words) [2]: minimal activity; EF5 retention versus hypoxic activation in HCT-116 parental cells (in words) [3]: clearly superior; cellular retention of EF5 (in words) ([4]; 20 μM EF5, 2 h, aerobic): greatest retention; retention of EF5, dose-response (in words) [4, 6]: clearly superior; cellular retention of EF5 (in words) ([5]; 20 μM EF5, 2 h, aerobic, compared to parental cells): minor EF5 retention; activity towards EF5, dose-response (in words) [5, 6]: minimal activity

From US10357577B2, “Bacterial nitroreductase enzymes and methods relating thereto” (AUCKLAND UNISERVICES LIMITED, priority 2010, dated 2019)
